Measurements from patent US7960549B2, “Solid forms of a chemokine receptor antagonist and methods of use thereof” (priority 2004, dated 2011).
Structures can show the parent of a compound that is named as a salt.

Columns and labels:
Type in all cases: physicochemical
[1] = Controlled temperature (isothermal) X-ray powder diffraction: thermal stability of the crystalline form; conditions: dry nitrogen; for form conversion as the temperature is raised (isothermal XRPD): ambient to 210° C.; for loss of stability (lines unique to the form disappear), isothermal XRPD: sample containing Forms E, F, and G, steps of 10° C.
Description: X-ray powder diffraction (XRPD) is performed on various samples of the Citrate Salt using one of three instruments. XRPD measurements with Instrument 1 utilize a Siemens-Bruker D5000 Matic powder diffractometer with a Bragg-Brentano (vertical θ-2θ configuration) parafocusing geometry. X-rays are produced from a sealed cobalt anode running at 40 kV and 30 mA. Two lines are typically emitted: CoKα1 (λ=1.7890 Å) and CoKα2 (λ=1.7929 Å). An iron β-filter limits the CoKβ (λ=1.6208 Å) radiation to about 1% of the diffracted beam at the detector. The primary beam passes through a parallel plate collimator (0.2 mm Soller slits), then through a divergence slit (0.2 mm). Diffracted X-rays are detected with a Braun 50 M multichannel linear detector having a 10°-wide detection window in angle 2θ. Scans are performed from 1.5° to 50.0° in 2θ, the scan time being 10 to 40 seconds per degree in 2θ. The error in the 2θ locations are typically within ±0.10 degrees.
In Instrument 3, XRPD measurements are performed at different temperatures to elucidate the evolution of crystal structure with temperature. Tests are carried out with a Siemens-Bruker D5000 diffractometer equipped with the Bragg Brentano parafocusing (θ-θ) geometry and an Anton-Paar TTK temperature chamber. Measurements utilize dry nitrogen or nitrogen streams having a particular humidity. The instrument specifications are substantially similar to the Siemens-Bruker D5000 Matic instrument described above (Instrument 1). Temperature is allowed to rise at a rate of 0.05° C./sec. Scans are recorded under the following conditions: a 1.5 to 50.0 degree scan in angle 2θ, 10 to 20 seconds counting time per degree in 2θ. Data are acquired in isotherm mode when the requested temperature is reached.

[2] = Differential scanning calorimetry (DSC)
Description: Differential scanning calorimetry (DSC) analyses are performed using a T.A Instruments Q1000 thermal analyser. Analyses are carried out using nitrogen purge gas flowing at an average rate of 50 ml/min. A mechanical compressor cools the system, and equilibrates the instruments being used at ambient temperature between analyses. […] Energy calibration is performed with a certified indium calibrator (melting enthalpy of 28.45 J/g), applying a heating rate of 5° C./min. The temperatures identified from DSC scans of a particular sample are accurate to within ±3° C. […] Modulated temperature differential scanning calorimetry (MTDSC) is also used since deconvolution of the total heat flow into reversing and non-reversing heat flows allows the transitions to be easily identified. The samples were submitted to the same experimental temperature program: after the equilibration of the sample at −5° C., the samples were heated through a modulated program from −5° C. to 210° C. at a rate of 1° C./min. […] Experiments are performed using crimped aluminium sample pans or open pans in some cases. The quantity of product analysed is typically between 2 and 13 mg.

[3] = Water sorption/desorption cycling (dynamic vapor sorption, DVS) at 25° C., with XRPD before and after; conditions: for XRPD before and after water sorption/desorption cycling: four consecutive cycles, start at 40%, cycled between 100% and 0% relative humidity, mixed samples; for global / net weight loss after all 4 water sorption/desorption cycles: four cycles between 100% and 0% relative humidity
Description: Water sorption measurements are performed on a DVS-1 automated gravimetric vapor sorption analyser (Surface Measurement Systems Ltd., London, UK). The DVS-1 measures the uptake and loss of vapor gravimetrically using a Cahn D200 recording ultra-microbalance with a mass resolution of ±0.1 μg. The relative humidity around the sample is controlled by mixing saturated and dry carrier gas streams using mass flow controllers. The temperature is maintained within ±0.1° C. by enclosing the entire system in a temperature-controlled incubator. A sample size between 15 and 20 mg is used. In general, the error in % (w/w) identified in a tested sample is ±0.1% (w/w).
Two protocols are utilized to operate the DVS. In one protocol, a sample is dried at 0% relative humidity (RH) to remove any surface water present and establish a dry, baseline mass. Next, the sample is exposed to the following relative humidity profile: 0%, 10%, 20%, 30%, 40%, 50%, 60%, 70%, 80%, 90%, 80%, 70%, 60%, 50%, 40%, 30%, 20%, 10%, 0%. In some instances, this profile is repeated, yielding 4 sets of data going up and down in RH. In another protocol, the sample is first equilibrated at 40% RH, then it was exposed to the following relative humidity profile: 40%, 50%, 60%, 70%, 80%, 90%, 100%, 90%, 80%, 70%, 60%, 50% 40% 30%, 20% 10%, 0%, 10%, 20%, 30%, 40%. […] If equilibrium state is not reached, the change in relative humidity took place automatically after 360 or 600 minutes. From the complete moisture sorption and desorption profile, an isotherm is calculated using the DVS Advanced Analysis Suite v3.6. All experiments were performed at 25° C.

[4] = Thermal gravimetric analysis (TGA)
Description: Measurements utilizing thermal gravimetric analysis (TGA) are carried out on a T.A. instruments TGAQ500 analyzer. Mass calibration is performed with 10 and 100 mg certified masses. Temperature calibration is performed with Alumel® and nickel standards (Curie points of respectively 154° C. and 354° C.). Samples are exposed to a constant nitrogen stream of 60 ml/min, and temperature ranges from room temperature to 350° C. at a 5° C./min rate. The quantity of product tested is between 2 and 13 mg. The sample is deposited in an open aluminum sample pan, which is itself placed in a platinum pan. The temperatures identified from TGA scans of a particular sample are accurate to within ±3° C. Simultaneous TGA and DSC measurements are carried out using a […] thermal analysis system produced by the […] corporation. A liquid nitrogen cooling system makes it possible to work at temperatures below 20° C. The emitted gases, upon sample heating, are carried by a transfer capillary tube to a Pfeiffer mass spectrometer, the capillary tube heated to 150° C. The mass spectrometer can analyze molecular fragments at <<m/e>> ratios between 1 and 200 uma. A sample with a mass between 1 and 27 mg is contained in an open concave aluminum sample pan (75 μL capacity) exposed to a nitrogen stream. The sample is heated at a rate of 1 or 5° C./min.

[5] = mixture of Forms A and D, 0.3° C./min, Form D: conversion to Form A, Form A: melting/decomposition
[6] = weight transition 2811 (conversion away from Form E), 5° C./min
[7] = weight transition 2812 (conversion away from Form F), 5° C./min
[8] = weight transition 2813 (conversion away from Form G), 5° C./min
[9] = weight transition 2814 (decomposition/melting of crystalline Form B, loss of citrate), 5° C./min
[10] = transition 3411 (first endothermic transition, conversion of Form E to Form B), heating rate 5° C./min
[11] = transition 3412 (second endothermic transition, conversion of Form F to Form B), heating rate 5° C./min
[12] = transition 3413 (third endothermic transition, conversion of Form G to Form B), heating rate 5° C./min
[13] = transition 3414 (fourth endothermic transition, decomposition/melting of crystalline Form B), heating rate 5° C./min
[14] = 25° C., listed as Forms E, F, and G
[15] = heating rate 5° C./min, sample of the single form (Form H formed from Form E sample), ±3° C.
[16] = heating rate 5° C./min, A, B, H: melting/decomposition, E: loss of water and conversion to Form H, ±3° C.
[17] = sample containing Forms A and D, 5° C./min
[18] = mixture of Forms A and D, 0.3° C./min

Structure (SMILES): CC(C)(O)c1ccc2c(c1)/C(=C/CCN1CC[C@](O)(c3ccc(Cl)cc3)C(C)(C)C1)c1cccnc1CO2 [Form D, citrate salt of (S)-4-(4-Chloro-phenyl)-1-{3-[7-(1-hydroxy-1-methyl-ethyl)-11H-10-oxa-1-aza-dibenzo[a,d]cyclohepten-5-ylidene]-propyl}-3,3-dimethyl-piperidin-4-ol]
- transition to Form A observed by temperature controlled XRPD ([1]; sample containing Forms A and D): below 60 °C
- DSC endothermic transition, Tmax [2, 5]: 52 °C
- DSC endothermic transition, interpolated beginning temperature [2, 5]: about 47 °C
- DSC endothermic transition, integrated enthalpy ([2]; mixture of Forms A and D, 0.3° C./min, conversion of Form D to Form A): 3.7 J/g
- XRPD before and after water sorption/desorption cycling ([3]; 25° C.): disappeared after the cycling; only the signature of Form A remains

Structure (SMILES): CC(C)(O)c1ccc2c(c1)/C(=C/CCN1CC[C@](O)(c3ccc(Cl)cc3)C(C)(C)C1)c1cccnc1CO2 [Form E, F, and G]
- Interpolated Starting T (° C.) [4, 6]: 42 °C
- T (° C.) corresponding to Max. Rate of Weight Change [4, 6]: 50 °C
- Weight Loss % (w/w) [4, 6]: 1.9 % (w/w)
- Interpolated Starting T (° C.) [4, 7]: 110 °C
- T (° C.) corresponding to Max. Rate of Weight Change [4, 7]: 123 °C
- Weight Loss % (w/w) [4, 7]: 3.6 % (w/w)
- Interpolated Starting T (° C.) [4, 8]: 131 °C
- T (° C.) corresponding to Max. Rate of Weight Change [4, 8]: 138 °C
- Weight Loss % (w/w) [4, 8]: 1.6 % (w/w)
- Interpolated Starting T (° C.) [4, 9]: 166 °C
- T (° C.) corresponding to Max. Rate of Weight Change [4, 9]: 187 °C
- Weight Loss % (w/w) [4, 9]: 22.6 % (w/w)
- Integrated Enthalpy Change [2, 10]: 20.3 J/g
- Interpolated Starting T [2, 10]: 78 °C
- Tmax [2, 10]: 99 °C
- Integrated Enthalpy Change [2, 11]: 5.8 J/g
- Interpolated Starting T [2, 11]: 119 °C
- Tmax [2, 11]: 124 °C
- Integrated Enthalpy Change [2, 12]: 2.4 J/g
- Interpolated Starting T [2, 12]: 131 °C
- Tmax [2, 12]: 136 °C
- Interpolated Starting T [2, 13]: 165 °C
- Tmax [2, 13]: 181 °C
- global / net weight loss after all 4 water sorption/desorption cycles [3, 14]: about 7.5 % (w/w)
- weight change / water uptake between 10% and 90% relative humidity [3, 14]: 2.10 % (w/w)
- weight gain / water uptake as relative humidity is increased from 0% to 10% [3, 14]: 3.76 % (w/w)

Structure (SMILES): CC(C)(O)c1ccc2c(c1)/C(=C/CCN1CC[C@](O)(c3ccc(Cl)cc3)C(C)(C)C1)c1cccnc1CO2 [Form F, citrate salt of (S)-4-(4-Chloro-phenyl)-1-{3-[7-(1-hydroxy-1-methyl-ethyl)-11H-10-oxa-1-aza-dibenzo[a,d]cyclohepten-5-ylidene]-propyl}-3,3-dimethyl-piperidin-4-ol]
- form conversion as the temperature is raised (isothermal XRPD) [1]: converts to Form B
- loss of stability (lines unique to the form disappear), isothermal XRPD [1]: greater than 110 °C
- XRPD before and after water sorption/desorption cycling ([3]; 25° C.): disappears

Structure (SMILES): CC(C)(O)c1ccc2c(c1)/C(=C/CCN1CC[C@](O)(c3ccc(Cl)cc3)C(C)(C)C1)c1cccnc1CO2 [Form G, citrate salt of (S)-4-(4-Chloro-phenyl)-1-{3-[7-(1-hydroxy-1-methyl-ethyl)-11H-10-oxa-1-aza-dibenzo[a,d]cyclohepten-5-ylidene]-propyl}-3,3-dimethyl-piperidin-4-ol]
- form conversion as the temperature is raised (isothermal XRPD) [1]: converts to Form B
- loss of stability (lines unique to the form disappear), isothermal XRPD [1]: ≥ 130 °C
- XRPD before and after water sorption/desorption cycling ([3]; 25° C.): have dissipated

Structure (SMILES): CC(C)(O)c1ccc2c(c1)/C(=C/CCN1CC[C@](O)(c3ccc(Cl)cc3)C(C)(C)C1)c1cccnc1CO2 [Form H, citrate salt of (S)-4-(4-Chloro-phenyl)-1-{3-[7-(1-hydroxy-1-methyl-ethyl)-11H-10-oxa-1-aza-dibenzo[a,d]cyclohepten-5-ylidene]-propyl}-3,3-dimethyl-piperidin-4-ol]
- TGA weight loss of the transition ([4]; heating rate 5° C./min, sample of the single form (Form H formed from Form E sample)): 20.10 % (w/w)
- TGA weight loss transition, interpolated beginning temperature [4, 15]: 127 °C
- TGA weight loss transition, temperature of maximum rate of weight loss [4, 15]: 142 °C
- DSC endothermic transition, Tmax [2, 16]: 141 °C
- DSC endothermic transition, interpolated beginning temperature [2, 16]: 131 °C
- behaviour when exposed to 10% relative humidity or higher ([3]; ambient temperatures): reversibly transforms into form E

Structure (SMILES): CC(C)(O)c1ccc2c(c1)/C(=C/CCN1CC[C@](O)(c3ccc(Cl)cc3)C(C)(C)C1)c1cccnc1CO2 [Forms A and D]
- TGA second weight loss transition 1812, interpolated beginning temperature [4, 17]: 164 °C
- TGA second weight loss transition 1812, temperature of maximum weight loss rate [4, 17]: 180 °C
- DSC endothermic transition 1912 (release of THF), Tmax [2, 18]: 77 °C
- DSC endothermic transition 1912 (release of THF), beginning temperature [2, 18]: about 60 °C
- DSC endothermic transition 1912 (release of THF), enthalpy [2, 18]: 18.1 J/g
- global / net weight loss after all 4 water sorption/desorption cycles ([3]; 25° C.): about 14.3 % (w/w)
